Literature values in patent US10640830B2, “Drug selection for non-small cell lung cancer therapy” (NESTEC S.A., priority 2013, dated 2020).

Legend:
[1] = early Phase I evaluation
[2] = test system: human xenograft models; details: dosed orally in human xenograft models
[3] = test system: CYP450
[4] = in vivo

CN(C[C@@H]1COCCO1)S(=O)(=O)Nc1ccc2ccc3ncc(-c4cnn(C)c4)cc3c(=O)c2c1 [MK-2461]
tolerability [1]: well tolerated

Cn1cc(-c2ccc3nnc(Sc4ccc5ncccc5c4)n3n2)cn1 [SGX523]
antitumor activity [2]: potent antitumor activity | toxicity [2]: no overt toxicity

COc1cc2c(Oc3ccc(NC(=O)C4(C(=O)Nc5ccc(F)cc5)CC4)cc3F)ccnc2cc1OCCCN1CCOCC1 [GSK 1363089/XL880]
CYP450 substrate / inhibitor / inducer [3]: CYP450 substrate, but not an inhibitor or inducer | oral bioavailability [4]: good oral bioavailability
